Patent US6632981B1, “DNA sequences encoding polypeptides having beta-1,3-glucanase activity” (Novartis Finance Corporation, priority 1988, dated 2003)

Legend:
chimeric PR-1a/GUS gene [1] = experiment: GUS induction in transformed tobacco callus; format: cell-based, Nicotiana tabacum
Description: Agrobacterium strains containing the appropriate vectors are used to transform callus forming from the leaf disks (Example 112). Callus forming on kanamycin-containing MSBN selection medium is maintained on a callus growth medium comprised of MS major, minor salts and Fe-EDTA (Gibco #500-1117; 4.3 g/l), MS vitamins, 100 mg/l myo-inositol, 20 g/l sucrose, 2 mg/l naphthaleneacetic acid and 0.3 mg/l kinetin.
The callus can be used to regenerate transgenic plants by transferring callus pieces to MSBN medium and following methods described in Examples 111 and 112. The callus is also used to measure gene induction following application of inducing chemicals and to screen for gene inducing chemicals.
A. Callus obtained according to previously described procedures is assayed for chemical induction by applying with a sterile paint brush or a plant mister a filter sterilized solution of 0.1 to 50 mM salicylic acid which has been adjusted to a pH between 6.0 and 8.0 by the addition of NaOH. […]
(3) Methyl benzo-1,2,3-thiadiazole-7-carboxylate. The solution is made by resuspending a wettable powder containing the chemical in sterile water for several minutes at a concentration of 1 mg/ml. Insoluble solid is removed from the solution by filter sterilizing.
Frozen leaf tissue is ground in a mortar with a pestle in the presence of liquid nitrogen to produce a fine powder. […]
The reactions are carried out in the wells of ELISA plates by mixing 5-25 l extract with 120-100 l GUS assay buffer (50 mM sodium phosphate buffer pH 7.0, 0.1% Triton X-100, 10 mM β-mercaptoethanol) containing 4-methyl umbelliferyl glucuronide (MU) at a final concentration of 2 mM in a total volume of 125 l. […] The concentration of fluorescent indicator released is determined by reading the plate on a Flow Labs Fluoroskan II ELISA plate reader. […]

chimeric PR-1a/GUS gene [2] = experiment: Transient GUS expression in tobacco protoplasts treated with pCIB269; format: cell-based, N. tabacum; details: H2O 30.6 13
Description: B. DNA is introduced into protoplasts by a modification of the method of Negrutiu, I. et al., Plant Mol. Biol. 8: 363 (1987). The protoplasts prepared as described in part A are resuspended following the last washing step in a solution consisting of 0.4 M mannitol, 15-30 mM CaCl2, 0.1% w/v MES at a density of 1.6-2×10^6 per ml. The protoplast suspension is distributed as 0.5 ml aliquots into 10 ml plastic centrifuge tubes. DNA such as that described in Examples 28 to 40 is added in 10 l sterile distilled water, sterilized as described by Paszkowski, J. et al., EMBO J. 3: 2717 (1984), and then 0.5 ml of the PEG solution (40% (w/v) PEG MW 8000 in 0.4 M mannitol, 0.1 M Ca(NO3)2, pH 7.0) is added. The solutions are mixed gently and incubated for 30 minutes at room temperature (about 24° C.) with occasional shaking. 1 ml of the wash solution is then added, and the contents of the tube gently mixed. […]
The reactions are carried out in the wells of ELISA plates by mixing 5-25 l extract with 120-100 l GUS assay buffer (50 mM sodium phosphate buffer pH 7.0, 0.1% Triton X-100, 10 mM β-mercaptoethanol) containing 4-methyl umbelliferyl glucuronide (MU) at a final concentration of 2 mM in a total volume of 125 l. […] The concentration of fluorescent indicator released is determined by reading the plate on a Flow Labs Fluoroskan II ELISA plate reader.

SMILES	GUS activities (chimeric PR-1a/GUS gene [1]; tobacco callus transformed with CIB271 (different experiment), 250 g/l spray, 21 hours, H2O spray 2.8) [nKat MU/mg protein]	GUS activities (chimeric PR-1a/GUS gene [1]; tobacco callus transformed with CIB273, 250 g/l spray, 21 hours, H2O spray 0.46) [nKat MU/mg protein]	GUS activity, transient expression (chimeric PR-1a/GUS gene [2]) [pKat MU/mg protein]	GUS activities (chimeric PR-1a/GUS gene [1]; tobacco callus transformed with CIB271, 50 mM spray, harvested 21 hours after treatment, H2O spray 1.8) [nKat MU/mg protein]
COC(=O)c1cccc2nnsc12 [Methyl benzo-1,2,3-thiadiazole-7-carboxylate]	13.7	31.2	66.6	–
O=C(O)c1ccccc1O [Salicylic acid, salicylic acid]	–	–	–	3.8
